From patent US8680094B2, “1, 4-benzoxazine compounds and derivatives thereof as therapeutic drugs for the treatment of neurodegenerative conditions” (Board of Regents, The University of Texas System, priority 2008, dated 2014) come the findings set out here.

The structures appear in SMILES notation. Several values for one entry are separate records, joined by “and”; a condition that tells them apart may be missing. Equal entries are not always repeated. Entries after “also recorded” stand apart in the source; their conditions may differ.

Assay [1] relates to cerebellar granule neurons. The assay is described as follows: LK-induced death of cultured cerebellar granule neurons, viability by DAPI staining. Type of assay: cell-based, rat. To be noted: for protection against LK-induced neuronal death (FIG. 1): 25 μM, phase contrast microscopy, DAPI-staining, TUNEL-staining; for neuroprotection against LK-induced neuronal death, in words: overall over 1, 5 and 25 μM. How it is done: Culturing and treatments of cerebellar granule neurons: Granule neuron cultures were obtained from dissociated cerebella of 6-7 day old Wistar rats as described previously (D'Mello et al., 1993). Cells were plated in Basal Eagle's Medium (BME) supplemented with 10% fetal calf serum (FCS), 25 mM KCl, 2 mM glutamine (Invitrogen), and 100 μg/ml gentamycin in poly-L-lysine coated 24-well dishes at a density 1×10^6 cells/well. Cytosine arabinofuranoside (10 μM) was added to the culture medium 18-22 h after plating to prevent replication of nonneuronal cells. Previous immunocytochemical analyses by our lab and other investigators have shown that these cultures have high purity containing over 95% granule neurons (Thangnipon et al., 2003; Kingsbury et al., 2005).
The neuronal cultures were maintained for 7-8 days prior to treatment. For treatment, the cells were rinsed once and then maintained in low K+ medium (serum-free BME medium; referred to as LK), or in the case of control cultures, in high K+ medium (serum-free BME medium supplemented with 20 mM KCl; referred to as HK). For treatments, the chemical compounds (dissolved in dimethylsulfoxide) were added directly to LK medium at the time of the switch from HK at concentrations of 1, 5, or 25 μM. Viability was assessed 24 hours by 4′,6′-diamidino-2-phenylindole hydrochloride (DAPI) staining (see below). Each compound was tested in duplicate (at each of the concentrations) and the experiment repeated at least 3 times.
The viability status of neuronal cultures treated with HK, LK, or LK medium supplemented with various compounds was evaluated by phase contrast microscopy and quantified by staining cell nuclei with DAPI as previously described (Yalcin et al., 2003; Morrison et al., 2006; Majzadeh et al., 2007)). Briefly, the cells were fixed in 4% paraformaldehyde for 20 min at 4° C. After washing in phosphate buffered saline, diamidino-2-phenylindole hydrochloride (DAPI; 1 μg/ml in phosphate buffered saline) was added for 15 min at room-temperature and viewed under ultraviolet light (260 nm). Cells with condensed or fragmented nuclei were scored as dead. Viability has been expressed as percent of control cultures, which were switched to HK medium). Statistical analysis was performed using an unpaired, two-tailed Student's T test, compared to mean neuronal survival of control cultures receiving LK treatment.
When cultured cerebellar granule neurons are switched from HK to LK medium about 50% of the cells underwent apoptosis within 24 h (D'Mello et al., 1993). The inventors utilized this widely used and recognized model to test a total of 20 different 1,4-benzoxazine derivatives for their ability to protect against LK-induced neuronal death. Each compound was tested at 3 different doses—1 μM, 5 μM and 25 μM and viability quantified by DAPI-staining. The highest does was included to test for possible toxicity effects of the compounds. Key results were confirmed using TUNEL staining, another reliable assay of apoptosis (FIG. 1). As shown in Table 1 and FIG. 1, the present invention identifies several compounds with significant neuroprotective effect. Two of the most protective compounds are HSB-13 and HSB-22, both with Ar=3′,5′-dibromo-4′-hydroxyphenyl (FIG. 1). […] Protection with this compound is lower than that observed with HSB-13 and HSB-22 at the two lower doses. […] To examine whether a higher level of protection could be observed at doses lower than 1 μM, the analyses of these compounds was extended to doses of 0.5, 0.25, and 0.1 μM.
When cultured cerebellar granule neurons are switched to LK medium, about 50% of the cells undergo apoptosis within 24 h. In this study, a total of 20 different 1,4-benzoxazine derivatives of the structure shown in FIG. 1 were tested for their ability to protect against LK-induced death of cerebellar granule neurons. Each compound was tested at 3 different doses —1 μM, 5 μM and 25 μM. […]

The next assay relates to HT-22 cells. The assay is described as follows: HCA-induced toxicity in HT-22 neuroblastoma cells. Type of assay: cell-based, mouse. How it is done:
FIGS. 6A and 6B show the effects of HSB-13 on HT-22 cells and the quantification of cell death. […] HT-22 cells were treated with no additives (Un), 1.5 mM HCA, or 1.5 mM HCA plus 25 μM HSB-13, 25 μM ASK-2a, and 25 μM HSB-22. In FIG. 6A, the appearance of the cultures at 24 h after treatment was visualized by phase-contrast microscopy (Phase). […] Viability was expressed as % of untreated cultures (control);
HT-22 cells were treated with no additives (Control), 2 mM HCA, or 2 mM HCA+25 μM HSB-13. The appearance of the cultures at 24 h after treatment is shown.
The mouse HT-22 neuroblastoma cell line was purchased from ATCC (Manassas, Va., USA) and cultured in Dulbecco's modified Eagle's medium (DMEM) with 4.5 g/L glucose (without sodium pyruvate) supplemented with 10% FBS, 100 units/ml penicillin and 100 μg/ml streptomycin. Cultures were plated at ˜30% confluence for HCA treatment. HCA was made as 150 mM stock solution adjusted to pH 7.5 and used at a final concentration of 1.5 mM.
Treatment of the mouse neuroblastoma HT-22 cell line with homocysteic acid (HCA) induces apoptosis through glutathione depletion and oxidative stress (Murphy et al. 1990; Ratan et al. 1994a, 1994b). The inventors studied whether HSB-13, HSB-22, and ASK-2a were protective in this paradigm of oxidative stress-induced neuronal death. HSB-13 prevents HCA-induced cell death. […] Thus, HSB-13, but not ASK-2a and HSB-22, is protective against oxidative stress-induced neuronal death.
Analysis in cultured cerebellar granule neurons identified HSB-13 as one with strong neuroprotective efficacy. We therefore selected HSB-13 to examine whether its protective effects extended to other neuronal types and apoptotic stimuli. Treatment of the hippocampally-derived neuroblastoma cell line, HT-22, with homocysteic acid (HCA) causes oxidative stress due to glutathione depletion leading to apoptosis (Murphy et al., 1990; Ratan et al., 1994a and 1994b).

Setting [2] is: Table 1, 5 μM in LK medium, 24 h, % of survival in control cultures in HK medium, LK alone 48%.
Where [3] appears, read: Table 1, 25 μM in LK medium, 24 h, % of survival in control cultures in HK medium, LK alone 48%.
Where [4] appears, read: any of the three doses examined (data not shown).
Where [5] appears, read: Table 4, 1 μM in LK medium, % of survival in HK control cultures, LK alone 48.16±8.44%.
[6] abbreviates: Table 4, 5 μM in LK medium, % of survival in HK control cultures, LK alone 48.16±8.44%.
Setting [7] is: Table 4, 25 μM in LK medium, % of survival in HK control cultures, LK alone 48.16±8.44%.

In the case of `O=C1Nc2ccccc2OC1=Cc1cc(Br)c(O)c(Br)c1` [ASK-2a], in assay [1] (24 h), the “protection against LK-induced neuronal death (FIG. 1)” value (shortened to “protection … (FIG. 1)”) is listed as “protective”. Also, the “% Survival” value is 74.01 ± 6.93% in assay [1] (Table 1, 1 μM in LK medium, 24 h, % of survival in control cultures in HK medium, LK alone 48%); 80.84 ± 9.31 % in assay [1] (setting [2]); 95.12 ± 3.28 % in assay [1] (setting [3]). Also, the “neuroprotection against LK-induced neuronal death, in words” value (shortened to “neuroprotection”) in assay [1] was “much higher neuroprotection than ASK2; also recorded: high level of neuroprotection; also recorded: effective in all the three concentrations”. Moreover, the “protection against HCA-induced cell death” value in the assay on HT-22 cells (setting [4]) is “failed to protect”.

Turning to `Nc1ccc2c(c1)NC(=O)/C(=C/c1cc(Br)c(O)c(Br)c1)O2` [HSB-13, (Z)-6-amino-2-(3,′5′-dibromo-4′-hydrozybenzylidene)-2H-benzo[b][1,4]oxazin-3(4H)-one], the “protection … (FIG. 1)” value in assay [1] (24 h) is reported as “protective”. Also, the “% Survival” value in assay [1] (setting [2]) was 100.2 ± 2.25 %; in assay [1] (setting [3]), 95.1 ± 5.06 %; in assay [1] (setting [5]), 83.1 ± 4.53 %; in assay [1] (setting [6]), 100.8% and 100.8 ± 0.07 %; in assay [1] (setting [7]), 99.5% and 99.5 ± 1.56 %. The “neuroprotection” value in assay [1] was “highest neuroprotection; also recorded: effective in all the three concentrations”. For the same molecule, the “protection against HCA-induced cell death” value is on record as “robust protection” in the assay on HT-22 cells (1.5 mM HCA, 5 μM compound, 24 h); “highest protection” in the assay on HT-22 cells (1.5 mM HCA, 25 μM compound, 24 h); “not protective” in the assay on HT-22 cells (2 mM HCA, 5 uM compound). For the same molecule, the HCA-induced cell death result with HT-22 cells (2 mM HCA, 25 uM compound, 24 h (FIG. 9)) is listed as “prevented”.

With `O=C1Nc2cc(Cl)ccc2O/C1=C\c1cc(Br)c(O)c(Br)c1` [HSB-22], the “protection … (FIG. 1)” value in assay [1] (24 h) is “protective”. Also, the “% Survival” value is 87.54 ± 8.83 % in assay [1] (setting [2]); 91.24 ± 9.03 % in assay [1] (setting [3]); 92% and 91.9 ± 1.98 % in assay [1] (setting [5]); 97% and 96.7 ± 2.96 % in assay [1] (setting [6]); 90.6% and 90.6 ± 0.84 % in assay [1] (setting [7]). The “neuroprotection” value in assay [1] is on record as “effective in all the three concentrations”. For the same molecule, the “protection against HCA-induced cell death” value with HT-22 cells (setting [4]) is recorded as “failed to protect”.
